# Measurements: patent US9416134B2 (Signal Pharmaceuticals, LLC, priority 2014, dated 2016)
# What was measured:
# [1] = Feasibility study on Form 1 (solubility in freeze-drying solvent mixtures); type: physicochemical; details: thermodynamic from solid
# Protocol: The freeze drying experiments were performed in 1.8 ml vials. Approximately 20 mg of starting material were weight in a HPLC vial and dissolved in five different solvent mixtures. […] These two experimental samples were freeze-dried in liquid nitrogen, followed by placing the vials in a freeze-dryer for 24 hours. The obtained solid was then harvested and analyzed by XRPD and digital imaging.
# Grinding experiments were performed in stainless steel grinding vials, containing 2 stainless steel grinding balls and a frequency of 30 Hz. Following the experiments, XRPD analysis was performed to assess the crystallinity of the materials.
# [2] = Water solubility of Form 1 (observation from slurry experiment in water); type: physicochemical
# Protocol: After the slurry time, the solids were separated from the solutions by centrifugation, harvested wet and analyzed by XRPD and digital imaging. The solids were then exposed to accelerated aging conditions (2 days at 40° C./75% RH), followed by XRPD re-analysis.
# The slurry experiment in water for two weeks at room temperature produced the anhydrous starting material, Form 1.
compound,measurement,setting,value
"CCN1C(=O)CNc2ncc(-c3ccc(-c4nc[nH]n4)nc3C)nc21 [Form 1, 1-ethyl-7-(2-methyl-6-(1H-1,2,4-triazol-3-yl)pyridin-3-yl)-3,4-dihydropyrazino[2,3-b]pyrazin-2(1H)-one]",solubility,"[1]; aqueous with cosolvent or surfactant or cyclodextrin, THF/Water (50/50), 25.1 mg in 1000 μL, not dissolved",< 25 mg/mL
same,solubility,"[1]; organic solvent or mixture, Ethanol/water (90/10), 24.2 mg in 400 μL, not dissolved",< 60 mg/mL
same,solubility,"[1]; organic solvent or mixture, TFE/water (90/10), 20.7 mg in 1000 μL, dissolved",21 mg/mL
same,solubility,"[1]; organic solvent or mixture, TFE, 21.9 mg in 1000 μL, dissolved",22 mg/mL
same,solubility,"[1]; organic solvent or mixture, THF/water (90/10), 24.8 mg in 1000 μL, not dissolved",< 25 mg/mL
same,Solubility in water,[2],practically insoluble
